These are literature values, as cited in patent US20050090549A1, “Intrathecal gabapentin for treatment of pain” (Medtronic, Inc., priority 2003, published 2005).

Molecules are shown by their SMILES.

The conditions of this data set: in water and in both basic and acidic aqueous solutions.

For `NCC1(CC(=O)O)CCCCC1` [1-(aminomethyl)cyclohexane acetic acid], the solubility result is on record as “freely soluble”.
